Each structure is given as a SMILES string.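 Assay format: 96-well plates, 48-hour exposure. GI50 marks 50% less growth. TGI: total growth inhibition.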 Where only a bound is given, the exact number is not on record here.

The record followed here is PubChem BioAssay (NCI).

Holding throughout (assay): inhibition of tumour cell growth, NCI panel, 48 h
In assay [1] the test system is DU-145 prostate.
The subject of assay [2] is MOLT-4 leukemia.
The test system of assay [3] is MDA-MB-435.
Assay [4] has as its system HCT-116 colon.
Assay [5] deals with NCI-H460 lung.
In assay [6] the test system is SNB-19 CNS.
The test system of assay [7] is UO-31 renal.
For assay [8], the system named is SK-MEL-2 melanoma.
In assay [9] the test system is HL-60(TB) leukemia.
Assay [10] relates to SN12C renal.

Regarding `COc1cc([C@@H]2c3cc4c(cc3[C@@H](O[C@@H]3O[C@@H]5CO[C@@H](c6cccs6)O[C@H]5[C@H](O)[C@H]3O)[C@H]3COC(=O)[C@H]23)OCO4)cc(OC)c1O`, the GI50 is 0.288 µM in [1]; 0.0313 µM in [2]; 1.15 µM in assay [3]; 0.344 µM in [4]; 0.023 µM in assay [5]; 0.167 µM in assay [6]. Moreover, the GI50 in assay [7] was 1.78 µM; in [8], 1.33 µM; in assay [9], 0.119 µM; in [10] it was 0.166 µM. Moreover, the TGI in assay [1] was 3.43 µM; in [3], over 39.2 µM; in assay [4], 4.81 µM; in [5], 2.09 µM; in assay [6] it was over 100 µM; in assay [7], 14.7 µM. Besides, the TGI in assay [8] was found to be 4.84 µM; in assay [9], 0.967 µM; in assay [10], 2.73 µM.

Turning to `CCC1CC(=O)N(SCC(N)C(=O)O)C1=O` (stereo not given), the TGI in assay [1], in assay [3], in assay [4], in assay [5], in assay [6] and in assay [7] was over 100 µM throughout. Also, the TGI in [8], in [9] and in assay [10] was over 100 µM throughout.

On to `COC(=O)[C@H](CC(C)C)NC(=O)NC(=O)NC(=O)CI`, for which the GI50 is 14 µM in [1]; 2.1 µM in assay [2]; 6.1 µM in assay [3]; 10 µM in [4]; 18.7 µM in assay [5]; 18 µM in assay [6]. Further, the GI50 was 1.64 µM in [7], 13.7 µM in [8] and 3.61 µM in assay [10]. In addition, the TGI in [1] was determined as 27 µM; in [2], 5.12 µM; in assay [3] it was 19.2 µM; in [4], 22.8 µM; in assay [5], 41.5 µM; in assay [6] it was 37.1 µM. Further, the TGI was determined as 3.13 µM in assay [7], 27.9 µM in [8] and 16.2 µM in assay [10].

On to `CC1=C([Se]CC(OC(=O)[C@@H](CO)NC(=O)OC(C)(C)C)C(=O)NC(C)(C)C)C(=O)c2ccccc2C1=O` (stereo not given in full), for which the GI50 in assay [1] is 1.9 µM; in [3], 2.01 µM; in [4], 1.46 µM; in [5], 0.456 µM; in assay [6], 0.66 µM; in assay [7], 1.45 µM. For the same molecule, the GI50 is 2.2 µM in [8], 0.87 µM in assay [9] and 1.85 µM in assay [10]. For the same molecule, the TGI in assay [1] was found to be 3.37 µM; in assay [3], 4.1 µM; in [4], 2.79 µM; in assay [5], 1.8 µM; in [6], 2 µM; in assay [7], 2.94 µM. Also, the TGI in assay [8] turned out to be 4.57 µM; in [9], 3.81 µM; in [10], 3.41 µM.

For `O=C(O)CCCCn1cnc2c(=S)nc[nH]c21`, the TGI in assay [1], in [2], in [3], in assay [4], in assay [5] and in [6] was over 100 µM throughout. Besides, the TGI in [7], in assay [8] and in assay [10] was over 100 µM each time.

Turning to `CCOC(=O)C1=C(C)NC2SC(=O)/C(=C\c3ccccc3)N2C1c1ccccc1` (stereo not given), the GI50 in assay [1] is over 100 µM; in [3] it was over 100 µM; in [4] it was 67.5 µM; in assay [5] it was 93.5 µM; in assay [6], over 100 µM; in assay [7] it was over 100 µM. Further, the figures for the GI50 in assay [8], in [9] and in assay [10] were over 100 µM, 25.6 µM and over 100 µM, respectively. Further, the TGI in assay [1], in [3], in [4], in assay [5], in [6] and in [7] was over 100 µM in each case. Besides, the TGI in assay [8], in [9] and in assay [10] was over 100 µM in each case.

`CC(=O)OCC1OC(OC2=C(CC=C(Cl)Cl)C(=O)c3ccccc3C2=O)C(OC(C)=O)C(OC(C)=O)C1OC(C)=O` (stereo not given): the GI50 is 11.8 µM in assay [1]; 1.43 µM in assay [2]; 4.38 µM in [3]; 1.74 µM in [4]; 12.5 µM in assay [5]; 11.8 µM in assay [6]. Further, the GI50 in assay [7] was 1.44 µM; in assay [8], 3.33 µM; in assay [10] it was 5.62 µM. Further, the TGI in assay [1] is 24.1 µM; in assay [2], 9.89 µM; in [3] it was 16 µM; in assay [4], 3.92 µM; in assay [5], 34.4 µM; in assay [6], 24.8 µM. The TGI in [7] stood at 3.37 µM; in assay [8], 9.25 µM; in [10], 18.7 µM.

Take `C/C(=C\CCc1ccoc1)CC/C=C(\C)CCCN1CCC(CO)CC1`: the GI50 in assay [1] is 8.41 µM; in assay [2] it was 2.32 µM; in [3], 3.07 µM; in [4], 2.96 µM; in assay [5], 2.08 µM; in assay [6], 4.61 µM. Also, the GI50 in [7] is 3.85 µM; in assay [9], 1.96 µM; in assay [10], 4.54 µM. Further, the TGI in assay [1] stood at 20.6 µM; in assay [2] it was 5.67 µM; in assay [3], 10.8 µM; in [4], 10.4 µM; in assay [5], 4.37 µM; in assay [6] it was 19.4 µM. Besides, the TGI in assay [7] is 16.7 µM; in assay [9], 3.95 µM; in assay [10] it was 18.9 µM.

`CCc1c(Cl)nc(Cl)nc1Cl`: the TGI in assay [1] was found to be 6.35 µM; in assay [2], 9.5 µM; in assay [3] it was 12.1 µM; in [4], 0.44 µM; in assay [5] it was 10.4 µM; in [6], 8.79 µM. For the same molecule, the TGI in assay [7] stood at 4.85 µM; in [9] it was 0.674 µM; in assay [10], 1.39 µM.

For the molecule `CC1(C)C(=S)C(C)(C)C1=S`, the TGI in [1], in assay [2], in assay [3], in assay [4], in [5] and in assay [6] was over 100 µM throughout. The TGI in assay [7], in assay [8] and in assay [10] was over 100 µM each time.
